Like-named read-outs stand apart in the source and are kept apart here.
Tests used:
[1] = system: E. cloacae; assay: Initial MIC, microbroth dilution (CLSI), avibactam 4 mg/L; type: cell-based
Text: (§1) All MIC determinations including those performed in the checkerboard assay were done in cation-adjusted Mueller-Hinton broth (purchased from Becton Dickinson, Oxford UK). […]

[2] = system: E. coli; assay: as above; type: cell-based
Text: as §1

[3] = system: E. faecalis; assay: as above; type: cell-based; settings: Enterococcus faecalis, read-out: MIC
Text: as §1

[4] = system: S. aureus; assay: as above; type: cell-based; settings: Staphylococcus aureus, read-out: MIC
Text: as §1

[5] = system: K. pneumoniae; assay: as above; type: cell-based
Procedure: (§2) All MIC determinations including those performed in the checkerboard assay were done in cation-adjusted Mueller-Hinton broth (purchased from Becton Dickinson, Oxford UK).
(§3) Initial MIC data were determined by microbroth dilution methods as recommended by CLSI (2012b). Checkerboards were made in accordance with the method given by Pillai et. al., ? Antimicrobial Combinations in Antibiotics, LABORATORY MEDICINE (Lorian Ed., 3rd Ed. (2003)) p. 365-440 as per standard microbroth dilution tests but with agents in combination. […] A final avibactam concentration of 4 mg/L was used throughout the study. Antibacterial agents were combined into microtitre plates using the Evolution III liquid handling system.

[6] = system: P. aeruginosa; assay: as above; type: cell-based
Procedure: as §2, §3

[7] = system: S. aureus; assay: MIC, CLSI broth microdilution in CAMHB with 0-10% pulmonary surfactant (avibactam fixed at 4 μg/mL in combination); type: cell-based, Staphylococcus aureus; settings: for MIC: Staphylococcus aureus, read-out: MIC
Procedure: The bacterial strains used in this testing were part of the microbiological culture collection housed at AstraZeneca R&D Boston (AstraZeneca Research Collection, designated ARC). The panel of bacterial isolates used for this testing was comprised of five CLSI QC reference strains and the remainder were either recent clinical isolates expressing β-lactamases or isolates from the primary bacterial screening panels.
MIC values were determined using the CLSI broth microdilution methodology with slight variation. Stock compound mother plates were prepared and used to spot 2 μL aliquots of serial 2-fold drug dilutions to columns 1-11 of 96-well daughter plates using a Perkin-Elmer MiniTrak™ MultiPosition dispenser. […] An inoculum volume of 100 μL (5×10E^5 CFU/mL) in CAMHB containing 0, 1, 2.5, 5, or 10% pulmonary surfactant was added using a multichannel Finnpipette® to each well of the 96-well plate.
The minimum inhibitory concentration (MIC) values against each organism/drug combination were determined using broth microdilution methodology according to CLSI guidelines. The recommended reference bacterial strains for each test group and reference compounds were incorporated into each test. For Gram-negatives, the reference bacterial strains were Escherichia coli ATCC 25922, E. coli ATCC 35218, Klebsiella pneumoniae ATCC 700603, and Pseudomonas aeruginosa ATCC 27853. Staphylococcus aureus ATCC 29213 was the reference bacterial strain for the Gram-positives.
MIC values for individual isolates were read visually. The MICs for each compound or combination in pulmonary surfactant was compared to the compound or combination tested in CAMHB alone.

[8] = Enterobacter cloacae, isolate 1 E. cloacae Basal MICs, read-out: MIC
[9] = Enterobacter cloacae, isolate 2 E. cloacae Derepressed AmpC, read-out: MIC
[10] = Enterobacter cloacae, isolate 3 E. cloacae Derepressed AmpC, read-out: MIC
[11] = Escherichia coli, isolate 5 E. coli CTX-M-15, read-out: MIC
[12] = Escherichia coli, isolate 6 E. coli TEM-4, read-out: MIC
[13] = Escherichia coli, isolate 7 E. coli SHV-12, read-out: MIC
[14] = Escherichia coli, isolate 8 E. coli SHV-2, read-out: MIC
[15] = isolate 25 E. faecalis Basal MICs
[16] = isolate 26 E. faecalis Basal MICs
[17] = isolate 27 E. faecalis Basal MICs
[18] = isolate 22 S. aureus Basal MICs
[19] = isolate 23 S. aureus Basal MICs, Penicillinase+
[20] = isolate 24 S. aureus Basal MICs, Penicillinase+
[21] = Klebsiella pneumoniae, isolate 9 K. pneumoniae Basal MICs, read-out: MIC
[22] = Klebsiella pneumoniae, isolate 10 K. pneumoniae TEM-4, read-out: MIC
[23] = Klebsiella pneumoniae, isolate 11 K. pneumoniae CTX-M-15, read-out: MIC
[24] = Klebsiella pneumoniae, isolate 12 K. pneumoniae SHV-12, read-out: MIC
[25] = Klebsiella pneumoniae, isolate 13 K. pneumoniae KPC-3, read-out: MIC
[26] = Klebsiella pneumoniae, isolate 14 K. pneumoniae KPC-3, read-out: MIC
[27] = Klebsiella pneumoniae, isolate 15 K. pneumoniae KPC-2, read-out: MIC
[28] = Pseudomonas aeruginosa, isolate 16 P. aeruginosa Basal MICs, read-out: MIC
[29] = Pseudomonas aeruginosa, isolate 17 P. aeruginosa Derepressed AmpC, read-out: MIC
[30] = Pseudomonas aeruginosa, isolate 18 P. aeruginosa Derepressed AmpC, read-out: MIC
[31] = Pseudomonas aeruginosa, isolate 19 P. aeruginosa PER, read-out: MIC
[32] = Pseudomonas aeruginosa, isolate 20 P. aeruginosa KPC-2, read-out: MIC
[33] = Pseudomonas aeruginosa, isolate 21 P. aeruginosa KPC-2, read-out: MIC

NC[C@H]1O[C@H](O[C@H]2[C@H](O)[C@@H](O[C@H]3O[C@H](CO)[C@@H](O)[C@H](N)[C@H]3O)[C@H](N)C[C@@H]2N)[C@H](N)C[C@@H]1O [Tobramycin]
8 µg/mL: MIC [3, 17] | MIC [5, 26] | MIC [6, 33]
0.5 µg/mL: MIC ([2]; Escherichia coli, isolate 4 E. coli Basal MICs, read-out: MIC) | MIC [4, 19] | MIC [6, 29] | MIC [6, 30]
64 µg/mL: MIC [2, 11] | MIC [2, 14]
256 µg/mL: MIC [6, 32]
1 µg/mL: MIC [2, 12] | MIC [2, 13] | MIC [6, 31]
16 µg/mL: MIC [3, 15] | MIC [3, 16]
4 µg/mL: MIC [5, 22]
0.25 µg/mL: MIC [1, 8] | MIC [1, 9] | MIC [1, 10] | MIC [4, 18] | MIC [4, 20] | MIC [5, 21] | MIC [5, 23] | MIC [5, 24] | MIC [5, 25] | MIC [6, 28]
0.12 µg/mL: MIC [5, 27]

Colistin
0.25 µg/mL: MIC ([1]; isolate 1 E. cloacae Basal MICs) | MIC ([1]; isolate 2 E. cloacae Derepressed AmpC) | MIC ([1]; isolate 3 E. cloacae Derepressed AmpC) | MIC ([2]; isolate 4 E. coli Basal MICs) | MIC ([2]; isolate 6 E. coli TEM-4) | MIC ([2]; isolate 8 E. coli SHV-2) | MIC ([5]; isolate 9 K. pneumoniae Basal MICs) | MIC ([5]; isolate 11 K. pneumoniae CTX-M-15) | MIC ([5]; isolate 12 K. pneumoniae SHV-12) | MIC ([5]; isolate 13 K. pneumoniae KPC-3) | MIC ([5]; isolate 14 K. pneumoniae KPC-3) | MIC ([5]; isolate 15 K. pneumoniae KPC-2)
1 µg/mL: MIC ([6]; isolate 16 P. aeruginosa Basal MICs) | MIC ([6]; isolate 18 P. aeruginosa Derepressed AmpC) | MIC ([6]; isolate 19 P. aeruginosa PER) | MIC ([6]; isolate 20 P. aeruginosa KPC-2)
0.5 µg/mL: MIC ([2]; isolate 5 E. coli CTX-M-15) | MIC ([2]; isolate 7 E. coli SHV-12) | MIC ([5]; isolate 10 K. pneumoniae TEM-4) | MIC ([6]; isolate 17 P. aeruginosa Derepressed AmpC)
2 µg/mL: MIC ([6]; isolate 21 P. aeruginosa KPC-2)

C[C@H]1COc2c(N3CCN(C)CC3)c(F)cc3c(=O)c(C(=O)O)cn1c23 [Levofloxacin]
1 µg/mL: MIC [3, 16] | MIC [3, 17] | MIC [6, 28]
0.015 µg/mL: MIC [2, 12] | MIC [2, 13]
8 µg/mL: MIC [6, 29]
0.06 µg/mL: MIC [1, 10] | MIC [5, 25] | MIC [5, 27]
0.12 µg/mL: MIC [4, 19] | MIC [4, 20] | MIC [6, 30]
0.25 µg/mL: MIC [4, 18]
32 µg/mL: MIC [6, 33]
0.5 µg/mL: MIC [1, 9] | MIC [3, 15]
16 µg/mL: MIC [2, 11] | MIC [2, 14] | MIC [5, 23] | MIC [5, 26] | MIC [6, 31] | MIC [6, 32]
0.03 µg/mL: MIC [1, 8] | MIC [5, 21] | MIC [5, 22] | MIC [5, 24]

CCCCCCCCCC(=O)N[C@@H](Cc1c[nH]c2ccccc12)C(=O)N[C@H](CC(N)=O)C(=O)N[C@@H](CC(=O)O)C(=O)N[C@@H]1C(=O)NCC(=O)N[C@@H](CCCN)C(=O)N[C@@H](CC(=O)O)C(=O)N[C@H](C)C(=O)N[C@@H](CC(=O)O)C(=O)NCC(=O)N[C@H](CO)C(=O)N[C@@H]([C@H](C)CC(=O)O)C(=O)N[C@@H](CC(=O)c2ccccc2N)C(=O)O[C@@H]1C [daptomycin]
0.5 µg/mL: MIC ([7]; ATCC29213, S. aureus ARC12 (CLSI QC strain, ATCC 29213), surfactant 0%) | MIC ([7]; MRSA, S. aureus ARC516 (MRSA, quinolone-resistant), surfactant 0%)
64 µg/mL: MIC ([7]; ATCC29213, S. aureus ARC12 (CLSI QC strain, ATCC 29213), surfactant 2.5%) | MIC ([7]; ATCC29213, S. aureus ARC12 (CLSI QC strain, ATCC 29213), surfactant 10%) | MIC ([7]; MRSA, S. aureus ARC516 (MRSA, quinolone-resistant), surfactant 2.5%)
> 64 µg/mL: MIC ([7]; ATCC29213, S. aureus ARC12 (CLSI QC strain, ATCC 29213), surfactant 5%) | MIC ([7]; MRSA, S. aureus ARC516 (MRSA, quinolone-resistant), surfactant 5%) | MIC ([7]; MRSA, S. aureus ARC516 (MRSA, quinolone-resistant), surfactant 10%)
16 µg/mL: MIC ([7]; ATCC29213, S. aureus ARC12 (CLSI QC strain, ATCC 29213), surfactant 1%) | MIC ([7]; MRSA, S. aureus ARC516 (MRSA, quinolone-resistant), surfactant 1%)
32 fold: MIC increase in pulmonary surfactant ([7]; S. aureus, 1% pulmonary surfactant)

Reference: US20150374673A1, “Combination Therapy for the Treatment of Nosocomial Pneumonia” (priority 2013, published 2015)
